# Measured values published in PubChem BioAssay AID330 (DTP/NCI, 2004).
# Where “and” joins values, the source holds several entries; their conditions need not be identical. Identical values can stand only once. Toxic doses and inconclusive results are not listed.
# Tested on: P388 leukemia ip, CD2F1 mice, survival T/C
# Experiment: NCI In Vivo Anticancer Drug Screen. Data for tumor model P388 Leukemia (intraperitoneal) in CD2F1 (CDF1) mice
# Details: endpoint: median survival time, higher = longer survival
# How it was run: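 Mice carrying the transplanted tumor received test compound or vehicle. Survival was recorded in each group, and the value is the treated-group measurement divided by that of the vehicle-treated control group.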
# [1] = dose: 25.0 mg/kg/injection, schedule: Q01DX009 (ip), vehicle: Klucel (hydroxypropylcellulose) (HPC)
# [2] = dose: 50.0 mg/kg/injection, schedule: Q01DX009 (ip), vehicle: Klucel (hydroxypropylcellulose) (HPC)
# [3] = dose: 100.0 mg/kg/injection, schedule: Q01DX009 (ip), vehicle: Klucel (hydroxypropylcellulose) (HPC)
# [4] = dose: 50.0 mg/kg/injection, schedule: Q01DX009 (ip), vehicle: saline with Tween-80
# [5] = dose: 100.0 mg/kg/injection, schedule: Q01DX009 (ip), vehicle: saline with Tween-80
# [6] = dose: 200.0 mg/kg/injection, schedule: Q01DX009 (ip), vehicle: Klucel (hydroxypropylcellulose) (HPC)
smiles,measurement,setting,value
CC(=O)[O][Pb]([O]C(C)=O)([c]1ccccc1)[c]1ccccc1,T/C,"dose: 6.25 mg/kg/injection, schedule: Q01DX009 (ip), vehicle: Klucel (hydroxypropylcellulose) (HPC)",121 % of control
same,T/C,"dose: 12.5 mg/kg/injection, schedule: Q01DX009 (ip), vehicle: Klucel (hydroxypropylcellulose) (HPC)",124 % of control
same,T/C,"dose: 17.8 mg/kg/injection, schedule: Q01DX009 (ip), vehicle: saline with Tween-80",114 % of control
same,T/C,[1],119 % of control
same,T/C,"dose: 30.0 mg/kg/injection, schedule: Q01DX009 (ip), vehicle: Klucel (hydroxypropylcellulose) (HPC)",104 % of control
same,T/C,"dose: 40.0 mg/kg/injection, schedule: Q01DX009 (ip), vehicle: saline with Tween-80",123 % of control
same,T/C,"dose: 45.0 mg/kg/injection, schedule: Q01DX009 (ip), vehicle: Klucel (hydroxypropylcellulose) (HPC)",112 % of control
same,T/C,[2],120 % of control
same,T/C,"dose: 65.0 mg/kg/injection, schedule: Q01DX009 (ip), vehicle: Klucel (hydroxypropylcellulose) (HPC)",107 % of control
same,T/C,[3],123 % of control
same,T/C,"dose: 150.0 mg/kg/injection, schedule: Q01DX009 (ip), vehicle: Klucel (hydroxypropylcellulose) (HPC)",150 % of control
CCCCc1ccc(N(C)C)cc1,T/C,"dose: 12.5 mg/kg/injection, schedule: Q01DX009 (ip), vehicle: saline with Tween-80",101 % of control
same,T/C,"dose: 25.0 mg/kg/injection, schedule: Q01DX009 (ip), vehicle: saline with Tween-80",110 % of control
same,T/C,[4],110 % of control
CCCCOc1cccc2c(NCCCNCCCNc3c4ccccc4nc4c(OCCCC)cccc34)c3ccccc3nc12,T/C,"dose: 0.63 mg/kg/injection, schedule: Q01DX009 (ip), vehicle: other",114 % of control
same,T/C,"dose: 1.25 mg/kg/injection, schedule: Q01DX009 (ip), vehicle: other",121 % of control
same,T/C,"dose: 2.5 mg/kg/injection, schedule: Q01DX009 (ip), vehicle: other",120 % of control and 124 % of control
same,T/C,"dose: 5.0 mg/kg/injection, schedule: Q01DX009 (ip), vehicle: other",100 % of control
N#CN=[N+]([O-])c1ccc([N+](=O)[O-])cc1,T/C,"dose: 1.56 mg/kg/injection, schedule: Q01DX001 (ip), vehicle: Klucel (hydroxypropylcellulose) (HPC)",101 % of control
same,T/C,"dose: 3.12 mg/kg/injection, schedule: Q01DX001 (ip), vehicle: Klucel (hydroxypropylcellulose) (HPC)",99 % of control
same,T/C,"dose: 6.25 mg/kg/injection, schedule: Q01DX001 (ip), vehicle: Klucel (hydroxypropylcellulose) (HPC)",110 % of control
same,T/C,"dose: 6.25 mg/kg/injection, schedule: Q04DX003 (ip), vehicle: Klucel (hydroxypropylcellulose) (HPC)",101 % of control
CC(C)C(OCc1ccccc1)C(=O)O (configuration not stated),T/C,"dose: 50.0 mg/kg/injection, schedule: Q01DX009 (ip), vehicle: alcohol",88 % of control
same,T/C,"dose: 100.0 mg/kg/injection, schedule: Q01DX009 (ip), vehicle: alcohol",98 % of control
same,T/C,"dose: 200.0 mg/kg/injection, schedule: Q01DX009 (ip), vehicle: alcohol",104 % of control
COc1cc2c(cc1OC)-c1nc(Nc3ccccc3)sc1CC2,T/C,[4],106 % of control
same,T/C,[5],106 % of control
same,T/C,"dose: 200.0 mg/kg/injection, schedule: Q01DX009 (ip), vehicle: saline with Tween-80",89 % of control
Cc1nnc(C)s1,T/C,[2],102 % of control and 106 % of control and 98 % of control
same,T/C,[3],114 % of control and 96 % of control and 97 % of control
same,T/C,[6],101 % of control and 106 % of control
same,T/C,"dose: 600.0 mg/kg/injection, schedule: Q01DX009 (ip), vehicle: Klucel (hydroxypropylcellulose) (HPC)",106 % of control
O=S(=O)(O)c1ccccc1N=Nc1ccc(N(CCCl)CCCl)cc1,T/C,[5],156 % of control
CCOC(=O)CCC(C(=O)c1cccnc1)c1ccccn1 (configuration not stated),T/C,"dose: 100.0 mg/kg/injection, schedule: Q01DX001 (ip), vehicle: saline",104 % of control
same,T/C,"dose: 200.0 mg/kg/injection, schedule: Q01DX001 (ip), vehicle: saline",101 % of control
same,T/C,"dose: 400.0 mg/kg/injection, schedule: Q01DX001 (ip), vehicle: saline",99 % of control
N#C/C(=N\Nc1cccc(C(F)(F)F)c1)C(N)=O,T/C,"dose: 50.0 mg/kg/injection, schedule: Q01DX005 (ip), vehicle: Klucel (hydroxypropylcellulose) (HPC)",103 % of control
same,T/C,"dose: 100.0 mg/kg/injection, schedule: Q01DX005 (ip), vehicle: Klucel (hydroxypropylcellulose) (HPC)",115 % of control
O=S(=O)(N/N=C/c1ccccc1)c1ccccc1,T/C,[1],106 % of control
same,T/C,[2],97 % of control
same,T/C,[3],99 % of control
same,T/C,[6],106 % of control
COc1ccc(C2CC(C)(O)Oc3cc4c(cc32)OCO4)cc1 (configuration not stated),T/C,"dose: 60.0 mg/kg/injection, schedule: Q01DX005 (ip), vehicle: Klucel (hydroxypropylcellulose) (HPC)",97 % of control
same,T/C,"dose: 120.0 mg/kg/injection, schedule: Q01DX005 (ip), vehicle: Klucel (hydroxypropylcellulose) (HPC)",89 % of control
c1ccc(O[Si](Oc2ccccc2)(Oc2ccccc2)Oc2ccccc2)cc1,T/C,"dose: 25.0 mg/kg/injection, schedule: Q01DX009 (ip), vehicle: other",86 % of control
same,T/C,"dose: 50.0 mg/kg/injection, schedule: Q01DX009 (ip), vehicle: other",96 % of control
same,T/C,"dose: 100.0 mg/kg/injection, schedule: Q01DX009 (ip), vehicle: other",99 % of control
